{"source": "ChEMBL document CHEMBL1201862", "about": "“PubChem BioAssay data set” (2004)", "key": {"[1]": {"test": "inhibition of ADAM10 peptide cleavage – biochemical, FRET peptide substrate, recombinant human ADAM10, selectivity assay for ADAM17 exosite inhibitor project, dose response (AID 743259)"}, "[2]": {"target": "Disintegrin and metalloproteinase domain-containing protein 17 (Homo sapiens, UniProt P78536)", "sequence (P78536 whole entry, the tested form may be a part)": "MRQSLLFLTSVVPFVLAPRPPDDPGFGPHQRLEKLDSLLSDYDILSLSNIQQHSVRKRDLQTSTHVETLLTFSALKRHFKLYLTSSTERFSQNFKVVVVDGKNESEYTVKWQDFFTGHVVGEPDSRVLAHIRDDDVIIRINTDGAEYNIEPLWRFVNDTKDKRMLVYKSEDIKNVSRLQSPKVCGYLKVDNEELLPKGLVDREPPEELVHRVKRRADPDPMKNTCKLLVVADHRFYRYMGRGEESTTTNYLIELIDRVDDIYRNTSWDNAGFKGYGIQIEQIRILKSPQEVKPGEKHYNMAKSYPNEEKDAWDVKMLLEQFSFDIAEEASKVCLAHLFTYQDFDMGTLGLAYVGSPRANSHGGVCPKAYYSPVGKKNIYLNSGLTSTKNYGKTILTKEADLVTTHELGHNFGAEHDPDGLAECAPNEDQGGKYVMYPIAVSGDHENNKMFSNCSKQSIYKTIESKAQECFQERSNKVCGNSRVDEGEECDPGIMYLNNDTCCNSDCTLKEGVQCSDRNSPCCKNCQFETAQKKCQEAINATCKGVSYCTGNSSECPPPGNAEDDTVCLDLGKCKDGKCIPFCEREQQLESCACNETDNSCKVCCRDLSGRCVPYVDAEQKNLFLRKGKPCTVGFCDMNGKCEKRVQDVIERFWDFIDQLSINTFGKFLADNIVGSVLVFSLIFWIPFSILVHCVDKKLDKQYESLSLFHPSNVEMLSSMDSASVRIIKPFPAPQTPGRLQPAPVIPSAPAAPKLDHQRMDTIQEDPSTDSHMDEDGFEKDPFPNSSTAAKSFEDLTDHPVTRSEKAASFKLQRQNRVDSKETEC", "test": "exosite inhibitors of ADAM17, dose response, biochemical (AID 743260)"}, "[3]": {"test": "Luminescence Cell-Based Dose Response HTS to Identify Inhibitors of 5'UTR Stem-Loop Driven Prion Protein mRNA Translation in H4 Neuroglioblastoma Cells. [Related pubchem assays: 1827 (Project Summary), 1813 (Primary HTS)]", "type": "functional"}, "[4]": {"test": "HEK-293T viability loss after treatment – luminescence, T-cell screen hits, cytotoxicity control for TCR NF-kB inhibitor project, dose response (AID 489026);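 further: cells exposed to compound about 14 hours before the viability readout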", "type": "functional, cell-based"}, "[5]": {"test": "luciferase reporter signal suppression in cells – H4 neuroglioma cells, luminescence, dose response (AID 1990)", "type": "functional, cell-based"}, "cells": {"test": "cells", "type": "functional, cell-based"}, "[6]": {"test": "alpha-synuclein stem-loop luciferase translation blockers – H4 neuroglioma cells, luminescence, confirmation (AID 1988)", "type": "functional, cell-based"}, "[7]": {"test": "alpha-synuclein stem-loop translation blockers – luminescence, H4 neuroglioblastoma cells, dose confirmation, confirmation (AID 2454);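 further: potency for inhibition of the luciferase signal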", "type": "functional, cell-based"}, "[8]": {"test": "luciferase reporter signal reduction – luminescence, H4-C neuroglioblastoma cells, dose response (AID 2458);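 further: H4 neuroglioblastoma cells stably carrying a luciferase reporter gene fusion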", "type": "functional, cell-based"}, "[9]": {"test": "viability loss in THP-1 monocytes – THP-1 cells, cytotoxicity control for Vif-APOBEC3G degradation inhibitor project, dose response (AID 1117359)", "type": "functional", "conditions": "THP-1"}, "[10]": {"target": "DNA dC->dU-editing enzyme APOBEC-3G (Homo sapiens, UniProt Q9HC16)", "sequence (Q9HC16 whole entry)": "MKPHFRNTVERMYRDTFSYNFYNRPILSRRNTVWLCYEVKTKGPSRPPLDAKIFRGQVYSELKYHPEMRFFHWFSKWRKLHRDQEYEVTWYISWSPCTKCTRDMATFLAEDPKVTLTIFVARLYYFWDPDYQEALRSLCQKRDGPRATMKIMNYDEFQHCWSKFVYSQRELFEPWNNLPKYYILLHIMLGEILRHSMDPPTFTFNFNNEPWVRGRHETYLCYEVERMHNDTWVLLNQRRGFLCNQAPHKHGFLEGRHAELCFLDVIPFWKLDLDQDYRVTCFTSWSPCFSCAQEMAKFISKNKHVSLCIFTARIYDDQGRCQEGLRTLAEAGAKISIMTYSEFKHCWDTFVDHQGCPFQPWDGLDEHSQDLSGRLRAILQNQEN", "test": "Dose Response confirmation of small molecule APOBEC3G DNA Deaminase Inhibitors via a fluorescence-based single-stranded DNA deaminase assay. [Related pubchem assays (depositor defined):AID493012, AID493028]", "type": "functional"}, "[11]": {"target": "T1, Rac GTPase-activating protein 1 (Homo sapiens, UniProt Q9H0H5)", "T1 sequence (Q9H0H5 whole entry)": "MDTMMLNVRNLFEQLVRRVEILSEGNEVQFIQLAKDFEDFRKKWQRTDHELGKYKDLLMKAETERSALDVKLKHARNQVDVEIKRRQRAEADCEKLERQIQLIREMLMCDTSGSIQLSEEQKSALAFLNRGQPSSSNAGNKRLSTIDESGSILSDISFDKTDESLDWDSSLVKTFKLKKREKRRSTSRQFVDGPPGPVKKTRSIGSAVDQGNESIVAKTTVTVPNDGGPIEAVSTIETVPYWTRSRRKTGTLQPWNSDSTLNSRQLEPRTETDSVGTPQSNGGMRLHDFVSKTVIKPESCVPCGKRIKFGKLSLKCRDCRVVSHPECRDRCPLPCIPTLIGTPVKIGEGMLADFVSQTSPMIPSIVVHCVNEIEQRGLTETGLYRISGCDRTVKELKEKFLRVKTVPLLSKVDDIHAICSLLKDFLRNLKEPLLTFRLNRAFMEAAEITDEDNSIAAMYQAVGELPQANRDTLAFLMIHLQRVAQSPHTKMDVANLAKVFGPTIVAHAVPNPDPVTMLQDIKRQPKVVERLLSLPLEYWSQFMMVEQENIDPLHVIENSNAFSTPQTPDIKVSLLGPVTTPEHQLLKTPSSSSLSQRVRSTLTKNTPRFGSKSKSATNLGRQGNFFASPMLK", "test": "blockers of MgcRacGAP-driven Rac1 GTP hydrolysis – biochemical, ADP Hunter fluorescence, primary and confirmatory, confirmation (AID 624330)", "type": "functional"}, "SUMO-activating enzyme": {"target": "SUMO-activating enzyme (Homo sapiens, UniProt Q9UBT2)", "sequence (Q9UBE0 whole entry)": "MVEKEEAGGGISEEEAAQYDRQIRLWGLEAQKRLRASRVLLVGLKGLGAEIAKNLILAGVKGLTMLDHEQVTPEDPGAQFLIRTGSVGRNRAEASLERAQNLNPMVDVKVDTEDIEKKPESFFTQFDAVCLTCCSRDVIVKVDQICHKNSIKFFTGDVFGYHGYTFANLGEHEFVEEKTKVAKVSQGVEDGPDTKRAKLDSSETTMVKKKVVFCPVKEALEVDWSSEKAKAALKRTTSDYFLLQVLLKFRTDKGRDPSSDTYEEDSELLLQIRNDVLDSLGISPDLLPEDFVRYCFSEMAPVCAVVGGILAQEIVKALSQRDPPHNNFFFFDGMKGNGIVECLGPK", "sequence (Q9UBT2 whole entry)": "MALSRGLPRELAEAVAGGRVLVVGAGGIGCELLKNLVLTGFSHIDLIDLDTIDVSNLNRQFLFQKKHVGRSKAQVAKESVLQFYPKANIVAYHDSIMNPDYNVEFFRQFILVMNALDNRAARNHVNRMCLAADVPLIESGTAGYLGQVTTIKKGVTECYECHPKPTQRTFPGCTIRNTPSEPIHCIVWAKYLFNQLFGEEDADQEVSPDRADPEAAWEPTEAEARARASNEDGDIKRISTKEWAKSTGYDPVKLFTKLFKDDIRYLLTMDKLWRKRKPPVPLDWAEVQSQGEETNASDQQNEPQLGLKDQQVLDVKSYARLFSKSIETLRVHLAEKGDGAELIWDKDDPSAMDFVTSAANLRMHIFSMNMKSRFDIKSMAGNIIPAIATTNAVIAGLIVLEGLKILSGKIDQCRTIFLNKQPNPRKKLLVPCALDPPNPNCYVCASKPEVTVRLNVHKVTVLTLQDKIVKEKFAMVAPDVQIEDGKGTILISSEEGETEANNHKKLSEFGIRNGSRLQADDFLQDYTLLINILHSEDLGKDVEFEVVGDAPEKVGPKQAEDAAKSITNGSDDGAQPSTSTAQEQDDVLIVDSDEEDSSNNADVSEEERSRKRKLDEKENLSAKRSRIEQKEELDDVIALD", "test": "blockers of UBC9-mediated SUMO conjugation – biochemical, AlphaScreen, SUMOylation inhibitor project, confirmation (AID 2018)", "type": "functional"}, "H4": {"system": "H4", "test": "Luminescence Cell-Based Dose Response HTS to Identify Activators of 5'UTR Stem-Loop Driven Prion Protein mRNA Translation in H4 Neuroglioblastoma Cells. [Related pubchem assays: 1829 (Project Summary), 1814 (Primary HTS)]", "type": "functional", "conditions": "Homo sapiens"}, "[12]": {"test": "Luminescence Cell-Based Dose Response HTS to Identify Activators of Luciferase Translation or Activity in H4 […] Cells. [Related pubchem assays: 1829 (Project Summary), 1814 (Primary HTS)]", "type": "functional"}, "[13]": {"test": "Luminescence Cell-Based Dose Confirmation HTS to Identify Activators of 5'UTR Stem-Loop Driven Alpha-Synuclein mRNA Translation in H4 Neuroglioblastoma Cells. [Related pubchem assays: 1829 (Project Summary), 1814 (Primary HTS)]", "type": "functional"}, "BJ [14]": {"system": "BJ", "test": "BJ-TERT-LT-ST fibroblast viability loss – cell-based, RAS-independent, luminescence, dose response (AID 1935);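 further: BJ fibroblasts immortalized with TERT plus LT and ST oncogenes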", "type": "functional", "conditions": "Homo sapiens"}, "BJ [15]": {"system": "BJ", "test": "BJ-TERT fibroblast viability loss – cell-based, RAS-independent, luminescence, dose response (AID 1933)", "type": "functional", "conditions": "Homo sapiens"}, "[16]": {"test": "DRD fibroblast viability loss – cell-based, non-viral oncogenic, luminescence, dose response (AID 1934)", "type": "functional", "conditions": "Homo sapiens"}, "BJ [17]": {"system": "BJ", "test": "cells", "type": "functional, cell-based", "conditions": "Homo sapiens"}, "BJ [18]": {"system": "BJ", "test": "growth inhibition of engineered Ras-driven BJ cells – cell-based, alamar blue fluorescence, cherrypicked samples, dose response (AID 2631)", "type": "functional", "conditions": "Homo sapiens"}, "[19]": {"test": "viability of HCT116 lacking mutant beta-catenin – cell-based, human colon tumor, dose response (AID 1045);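 further: HCT116 colon tumor cells with beta catenin knocked out; cells exposed to compound for 60 hours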", "type": "functional"}, "[20]": {"test": "non-specific 3'UTR reporter inhibition in Clone20-Shn3RL – cell-based, Renilla luciferase, cherry-picked, counter-screen for Shn3 inhibitor project, dose response (AID 624133)", "type": "functional"}, "Paired box protein Pax-8": {"target": "Paired box protein Pax-8 (Homo sapiens, UniProt Q06710)", "sequence (Q06710 whole entry)": "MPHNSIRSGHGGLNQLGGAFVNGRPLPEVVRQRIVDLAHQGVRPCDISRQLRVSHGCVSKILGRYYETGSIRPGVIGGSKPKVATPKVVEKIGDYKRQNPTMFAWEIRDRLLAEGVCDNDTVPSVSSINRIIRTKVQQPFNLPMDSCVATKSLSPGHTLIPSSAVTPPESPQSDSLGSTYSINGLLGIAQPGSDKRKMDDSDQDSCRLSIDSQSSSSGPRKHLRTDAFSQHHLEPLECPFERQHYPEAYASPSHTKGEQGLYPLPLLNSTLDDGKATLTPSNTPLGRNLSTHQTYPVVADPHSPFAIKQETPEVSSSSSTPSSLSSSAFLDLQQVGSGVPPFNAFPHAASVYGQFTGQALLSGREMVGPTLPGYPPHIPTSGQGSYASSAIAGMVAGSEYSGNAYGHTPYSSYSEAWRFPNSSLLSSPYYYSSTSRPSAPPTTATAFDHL", "test": "PAX8 transcriptional activity inhibition in RMG-I – RMG-I cells, luciferase, cherry-pick, dose response (AID 687027);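 further: luciferase reporter driven by Pax8 target thyroperoxidase promoter measured by SteadyGlo luminescence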", "type": "functional, cell-based"}, "[21]": {"test": "viability of PTEN-deleted HCT116 cells – cell-based, HCT116 PTEN knockout, dose response (AID 1047);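 further: HCT116 colon tumor cells with PTEN knocked out; cells exposed to compound for 60 hours before readout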", "type": "functional"}, "[22]": {"test": "loss of viability in HepG2 cells – cell-based, CellTiter-Glo, cherry-picked, cytotoxicity control for Shn3 inhibitor project, dose response (AID 624134)", "type": "functional"}, "[23]": {"test": "reduction of Shn3 3'UTR-driven luciferase in osteoblasts – cell-based, Clone20 osteoblasts, firefly luciferase, cherry-picked, dose response (AID 624132)", "type": "functional"}}, "note": "Calls of active or inactive are those of the source. For most assays here, no stated cut-off is given here; in the data, actives have a measured EC50 and inactives only a lower limit."}
{"smiles": "O=C(OCc1cnc(Cl)s1)c1cccc(Cl)c1Cl", "values": [{"measurement": "IC50", "setting": "[1]", "result": "> 69.6 µM (inactive)"}, {"measurement": "IC50", "setting": "[2]", "result": "> 69.6 µM (inactive)"}]}
{"smiles": "Cc1cc(NC(=O)CSc2nc3ccccc3c(=O)n2C2CCCC2)no1", "values": [{"measurement": "EC50", "setting": "[3]", "result": "< 100 nM (active)"}, {"measurement": "IC50", "setting": "[4]", "result": "> 80 µM (inactive)"}, {"measurement": "EC50", "setting": "[5]", "result": "4.73 µM (inconclusive)"}, {"measurement": "EC50", "setting": "cells", "result": "> 12 µM (not active)"}, {"measurement": "EC50", "setting": "[6]", "result": "< 100 nM (active)"}, {"measurement": "EC50", "setting": "[7]", "result": "1.89 µM (inconclusive)"}, {"measurement": "EC50", "setting": "[8]", "result": "1.5 µM (active)"}]}
{"smiles": "CCOc1ccc(-n2c(SCC(=O)Nc3cc(C)c(NC(=O)c4ccccc4)cc3OC)nnc2-c2cccs2)cc1", "values": [{"measurement": "IC50", "setting": "[1]", "result": "> 69.5 µM (inactive)"}, {"measurement": "IC50", "setting": "[2]", "result": "> 69.5 µM (inactive)"}]}
{"smiles": "O=C(Nc1ccncc1)C1CCN(S(=O)(=O)c2c(Cl)cccc2Cl)CC1", "values": [{"measurement": "CC50", "setting": "[9]", "result": "> 40 µM (active)"}]}
{"smiles": "CC(C)Cn1c(-c2ccc(Br)o2)n[nH]c1=S", "values": [{"measurement": "IC50", "setting": "[10]", "result": "2.83 µM (active)"}, {"measurement": "IC50", "setting": "[11]", "result": "105 µM (active)"}]}
{"smiles": "O=C1N(c2ccc(Cl)c(Cl)c2)CN(Cc2ccccc2)CN1n1cnnc1", "values": [{"measurement": "IC50", "setting": "SUMO-activating enzyme", "result": "> 100 µM (inactive)"}]}
{"smiles": "Cc1cc(C)c([N+](=O)[O-])cc1-c1ccc(/C=N/c2c(-c3ccco3)nc3ccccn23)o1", "values": [{"measurement": "EC50", "setting": "H4", "result": "14.8 µM (active)"}, {"measurement": "EC50", "setting": "[12]", "result": "12 µM (active)"}, {"measurement": "CC50", "setting": "[9]", "result": "31.6 µM (active)"}, {"measurement": "EC50", "setting": "[13]", "result": "8.26 µM (active)"}]}
{"smiles": "COc1ccccc1N1CCN(C(=O)c2cc(=O)c3cc(C)cc(C)c3o2)CC1", "values": [{"measurement": "EC50", "setting": "BJ [14]", "result": "229 nM (inconclusive)"}, {"measurement": "EC50", "setting": "[3]", "result": "127 nM (active)"}, {"measurement": "IC50", "setting": "[4]", "result": "> 80 µM (inactive)"}, {"measurement": "EC50", "setting": "[5]", "result": "0.101 µM (active)"}, {"measurement": "EC50", "setting": "cells", "result": "0.415 µM (active)"}, {"measurement": "EC50", "setting": "[6]", "result": "< 100 nM (active)"}, {"measurement": "EC50", "setting": "BJ [15]", "result": "346 nM (active)"}, {"measurement": "EC50", "setting": "[16]", "result": "375 nM (active)"}, {"measurement": "EC50", "setting": "[7]", "result": "0.259 µM (active)"}, {"measurement": "EC50", "setting": "BJ [17]", "result": "938 nM (active)"}, {"measurement": "EC50", "setting": "[8]", "result": "0.289 µM (active)"}, {"measurement": "EC50", "setting": "BJ [18]", "result": "< 104 nM (active)"}]}
{"smiles": "Cc1cc(C2=NN=C(NC3CC3)SC2)c(C)n1-c1ccccc1F", "values": [{"measurement": "EC50", "setting": "[3]", "result": "< 100 nM (active)"}, {"measurement": "EC50", "setting": "[19]", "result": "16.7 µM (active)"}, {"measurement": "EC50", "setting": "[5]", "result": "< 0.1 µM (active)"}, {"measurement": "EC50", "setting": "cells", "result": "0.016 µM (active)"}, {"measurement": "EC50", "setting": "[6]", "result": "< 100 nM (active)"}, {"measurement": "EC50", "setting": "[7]", "result": "0.004 µM (active)"}, {"measurement": "AC50", "setting": "[20]", "result": "6.07 µM (active)"}, {"measurement": "AC50", "setting": "Paired box protein Pax-8", "result": "< 260 nM (active)"}, {"measurement": "EC50", "setting": "[21]", "result": "17.1 µM (active)"}, {"measurement": "EC50", "setting": "[8]", "result": "0.005 µM (active)"}, {"measurement": "AC50", "setting": "[22]", "result": "28 µM (active)"}, {"measurement": "AC50", "setting": "[23]", "result": "< 260 nM (active)"}]}
{"smiles": "OC(c1ccc(F)c(F)c1)c1nc(-c2cccc(C(F)(F)F)c2)cs1", "note": "(stereo unspecified)", "values": [{"measurement": "IC50", "setting": "[1]", "result": "12.1 µM (inactive)"}, {"measurement": "IC50", "setting": "[2]", "result": "50.5 µM (inactive)"}]}
{"smiles": "CCOc1ccc2[nH]c(C(=O)N/N=C/c3ccc(OC)cc3)cc2c1", "values": [{"measurement": "EC50", "setting": "[3]", "result": "273 nM (active)"}, {"measurement": "EC50", "setting": "[5]", "result": "7.08 µM (active)"}, {"measurement": "EC50", "setting": "cells", "result": "1.4 µM (active)"}, {"measurement": "EC50", "setting": "[6]", "result": "< 100 nM (active)"}, {"measurement": "EC50", "setting": "[7]", "result": "3.25 µM (active)"}, {"measurement": "EC50", "setting": "[8]", "result": "1.12 µM (active)"}]}
